Each structure is given as a SMILES string.

A word on the IC50: it is the midpoint of a concentration-inhibition curve.

This experiment concerns the target T1, human CRTH2 (Homo sapiens, UniProt Q9Y5Y4).
T1 sequence (Q9Y5Y4 1-395): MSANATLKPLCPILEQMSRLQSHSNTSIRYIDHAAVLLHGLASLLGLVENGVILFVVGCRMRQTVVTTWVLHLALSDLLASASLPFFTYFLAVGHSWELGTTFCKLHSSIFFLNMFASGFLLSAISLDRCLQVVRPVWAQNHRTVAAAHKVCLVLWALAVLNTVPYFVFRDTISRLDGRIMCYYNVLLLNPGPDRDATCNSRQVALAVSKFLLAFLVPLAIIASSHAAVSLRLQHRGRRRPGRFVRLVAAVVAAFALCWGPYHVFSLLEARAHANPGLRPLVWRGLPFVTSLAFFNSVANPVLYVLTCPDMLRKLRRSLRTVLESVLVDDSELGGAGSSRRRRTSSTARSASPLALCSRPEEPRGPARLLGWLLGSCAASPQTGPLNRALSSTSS
The experiment can be described thus: Human CRTH2 Receptor Binding Assay (whole cell, [3H]ramatroban). Also noted: expressed in transfected cells; host or cells: CHO-K1. Particulars: CHO-K1 cells expressing human CRTH2 and G-alpha16; 20 nM [3H]ramatroban; 1 hour, room temperature. An excerpt:
A whole cell receptor binding assay using [^3H]ramatroban as the competing radioactive ligand was employed to evaluate the compound binding activity to human CRTH2. The radioactive ligand [^3H]ramatroban was synthesized according to Sugimoto et. al. (Eur. J. Pharmacol. 524, 30-37, 2005) to a specific activity of 42 Ci/mmol.
A cell line stably expressing human CRTH2 was established by transfecting CHO-K1 cells with two mammalian expression vectors that harbored human CRTH2 and G-alpha16 cDNAs, respectively, using FuGene® 6 transfection reagent (from Roche). Stable clones expressing CRTH2 were selected by staining each clone with BM16 (BD Pharmingen™ from BD Biosciences, a division of Becton, Dickinson and Company), which is a rat monoclonal antibody to human CRTH2. The cells were maintained as monolayer cultures in Ham's F-12 medium containing 10% fetal bovine serum, 100 units/mL penicillin, 100 μg/mL streptomycin, 2 mM glutamine, 0.5 mg/mL G418 (geneticin) for CRTH2, and 0.2 mg/mL hygromycin-B (for G-alpha 16). For whole cell receptor binding assay, the monolayer cells were rinsed once with PBS (phosphate buffered saline), dissociated using ethylenediaminetetraacetate (Versene™ EDTA from Lonza Inc.), and suspended in PBS containing 10 mM MgCl2 and 0.06% BSA (bovine serum albumin) at 1.5×10^6 cells/mL.
The binding reactions (0.2 mL) were performed in 96-well plates at room temperature in PBS containing 1.5×10^5 cells, 10 mM MgCl2, 0.06% BSA, 20 nM [^3H]ramatroban, and test compound at various concentrations. After 1 hour of binding reactions, the cells were harvested on GF™/B filter microplates (microtiter plates with embedded glass fiber from Perkin Elmer, Inc.) and washed 5 times with PBS using a Filtermate™ Harvester (a cell harvester that harvests and washes cells from microplates from PerkinElmer, Inc.). The radioactivities bound to the cells were determined using a microplate scintillation counter (TopCount® NXT, from PerkinElmer, Inc.) after adding 50 μL of Microscint™ 20 scintillation fluid (from PerkinElmer, Inc.) to each well of the filter plates. The radioactivity from non-specific binding was determined by replacing compound with 10 μM of 15(R)-15-methyl PGD2 (from Cayman Chemical Company) in the reaction mixtures. The radioactivity bound to the cells in the absence of compound (total binding) was determined by replacing compound with 0.25% of DMSO (dimethyl sulfoxide) in the reaction mixture. Specific binding data were obtained by subtracting the radioactivity of non-specific binding from each binding data.
The IC50 value is defined as the concentration of the tested compound that is required for 50% inhibition of total specific binding. In order to calculate the IC50 value, the percent inhibition data were determined for 7 concentrations for each compound. The percent inhibition for a compound at each concentration was calculated according to the following formula, [1-(specific binding in the presence of compound)/(total specific binding)]×100. The IC50 value was then obtained by fitting the percent inhibition data to a sigmoidal dose-response (4 parameter logistic) model in the XLfit® software Excel add-in program [from ID Business Solutions Ltd., model 205, where F(x)=(A+(B−A)/(1+((C/×)^D)))].
On to `Cc1ccc2cc(CC(=O)O)cc(Cc3ccc(S(C)(=O)=O)cc3)c2c1` [Example 8-1, [4-(4-Methanesulfonyl-benzyl)-6-methyl-naphthalen-2-yl]-acetic acid], for which the IC50 was 87.8 nM.
Take `CS(=O)(=O)c1ccc(C(=O)c2cc(CC(=O)O)cc3ccc(F)cc23)cc1` [Example 2-1, [6-Fluoro-4-(4-methanesulfonyl-benzoyl)-naphthalen-2-yl]-acetic acid]: the IC50 worked out at 4.3 nM.
As for `Cc1c(CC(=O)O)cc2ccc(F)cc2c1Cc1cccc(-c2nnnn2C)c1` [Example 10-7, (6-Fluoro-3-methyl-4-[3-(1-methyl-1H-tetrazol-5-yl)-benzyl]-naphthalen-2-yl]-acetic acid], the figure is 6.7 nM.
In turn, `CN(C)S(=O)(=O)c1ccc(C(=O)c2cc(CC(=O)O)cc3ccccc23)cc1` [Example 1-1, [4-(4-Dimethylsulfamoyl-benzoyl)-naphthalen-2-yl]-acetic acid] came in with an IC50 of 17.8 nM.
As for `CS(=O)(=O)c1ccc(C(O)c2cc(CC(=O)O)cc3ccc(Cl)cc23)cc1` (stereo not shown) [Example 16-3, {6-Chloro-4-[hydroxy-(4-methanesulfonyl-phenyl)-methyl]-naphthalen-2-yl}-acetic acid], the figure is 15.9 nM; as for `CS(=O)(=O)c1ccc(C(F)(F)c2cc(CC(=O)O)cc3ccc(F)cc23)c(Cl)c1` [Example 17-1, {4-[(2-Chloro-4-methanesulfonyl-phenyl)-difluoro-methyl]-6-fluoro-naphthalen-2-yl}-acetic acid], 5.7 nM.
As for `Cc1ccc(Cc2c(C)c(CC(=O)O)cc3ccc(F)cc23)cc1` [Example 15-1, [6-Fluoro-3-methyl-4-(4-methyl-benzyl)-naphthalen-2-yl]-acetic acid], the IC50 amounted to 60.1 nM.
As for `O=C(O)Cc1cc(C(=O)c2ccc(S(=O)(=O)c3cccc(Cl)c3)cc2)c2cc(F)ccc2c1` [Example 1-5, {4-[4-(3-Chloro-benzenesulfonyl)-benzoyl]-6-fluoro-naphthalen-2-yl}-acetic acid], the figure is 6.2 nM; as for `Cc1c(CC(=O)O)cc2ccc(F)cc2c1Cc1ccc(C#N)cc1` [Example 10-5, [4-(4-Cyano-benzyl)-6-fluoro-3-methyl-naphthalen-2-yl]-acetic acid], 12.4 nM; as for `CCS(=O)(=O)c1ccc(Cc2cc(CC(=O)O)cc3ccc(F)cc23)cc1` [Example 8-9, [4-(4-Ethanesulfonyl-benzyl)-6-fluoro-naphthalen-2-yl]-acetic acid], 4.3 nM.
Next, `Cc1cc(S(=O)(=O)N2CCOCC2)ccc1C(=O)c1cc(CC(=O)O)cc2ccc(F)cc12` [Example 2-23, {6-Fluoro-4-[2-methyl-4-(morpholine-4-sulfonyl)-benzoyl]-naphthalen-2-yl}-acetic acid]: 3.7 nM; `CS(=O)(=O)c1ccc(C(=O)c2cc(CC(=O)O)cc3ccc(F)cc23)c(Cl)c1` [Example 2-8, [4-(2-chloro-4-methanesulfonyl-benzoyl)-6-fluoro-naphthalen-2-yl]-acetic acid]: 8.5 nM; `Cc1cc(S(C)(=O)=O)ccc1C(O)c1cc(CC(=O)O)cc2ccc(F)cc12` (stereo not shown) [Example 16-4, {6-Fluoro-4-[hydroxy-(4-methanesulfonyl-2-methyl-phenyl)-methyl]-naphthalen-2-yl}-acetic acid]: 31.9 nM.
Next, `CC(C)(C)OC(=O)N1CCN(S(=O)(=O)c2ccc(C(=O)c3cc(CC(=O)O)cc4ccc(F)cc34)cc2)CC1` [Example 4-2]: 26.7 nM; `Cc1c(CC(=O)O)cc2ccc(F)cc2c1Cc1ccc(S(=O)(=O)Cc2ccccc2)cc1` [Example 11-3, [6-Fluoro-3-methyl-4-(4-phenylmethanesulfonyl-benzyl)-naphthalen-2-yl]-acetic acid]: 2.7 nM; `CS(=O)(=O)c1ccc(C(=O)c2cc(CC(=O)O)cc3cc(F)ccc23)cc1` [Example 2-4, [7-Fluoro-4-(4-methanesulfonyl-benzoyl)-naphthalen-2-yl]-acetic acid]: 40.6 nM.
`CS(=O)(=O)c1ccc(C(=O)c2cc(CC(=O)O)cc3cc(F)c(F)cc23)cc1` [Example 2-6, [6,7-Difluoro-4-(4-methanesulfonyl-benzoyl)-naphthalen-2-yl]-acetic acid] yielded an IC50 of 15.5 nM.
Next, `CS(=O)(=O)c1ccc(Cc2cc(CC(=O)O)cc3ccc(F)cc23)cc1C(F)(F)F` [Example 8-6, [6-Fluoro-4-(4-methanesulfonyl-3-trifluoromethyl-benzyl)-naphthalen-2-yl]-acetic acid]: 5.4 nM; `CS(=O)(=O)c1ccc(C(=O)c2cc(CC(=O)O)cc3ccc(F)cc23)c(F)c1` [Example 2-17, [6-Fluoro-4-(2-fluoro-4-methanesulfonyl-benzoyl)-naphthalen-2-yl]-acetic acid]: 14.5 nM; `Cc1c(CC(=O)O)cc2ccc(F)cc2c1Cc1ccc(-c2cncnc2)cc1` [Example 12-2, [6-Fluoro-3-methyl-4-(4-pyrimidin-5-yl-benzyl)-naphthalen-2-yl]-acetic acid]: 10.2 nM.
Next, `Cc1ccc2cc(CC(=O)O)cc(C(=O)c3ccc(S(C)(=O)=O)cc3)c2c1` [Example 2-28, [4-(4-Methanesulfonyl-benzoyl)-6-methyl-naphthalen-2-yl]-acetic acid]: 21.3 nM; `CCOC(=O)N1CCN(S(=O)(=O)c2ccc(C(=O)c3cc(CC(=O)O)cc4ccc(F)cc34)cc2)CC1` [Example 4-1, 4-[4-(3-Carboxymethyl-7-fluoro-naphthalene-1-carbonyl)-benzenesulfonyl]-piperazine-1-carboxylic acid ethyl ester]: 8.3 nM.
